Test results: patent US7947275B2 (Signe Biopharma, Inc., priority 2000, dated 2011)
Where “and” joins values, the source holds several entries; their conditions need not be identical. Identical values can stand only once. Counter-ions that a name gives are not always drawn. Like-named read-outs stand apart in the source and are kept apart here.

Key:
MTW9/PL2 cells = assay: Cell growth assay, MTW9/PL2 rat mammary tumor cells; conditions: for concentration causing significant (p<0.05) growth / concentration for optimum growth: 50% (v/v) CDE-horse serum
Description: (§1) General Cell Culture—Growth Assay Methods.
(§2) General Cell Culture—Harvest and Counting Cells.
(§3) General Cell Culture—Quantification of Growth.

MCF-7K cells = assay: Cell growth assay, MCF-7K human breast cancer cells
Description: as §1, §2, §3

[1] = system: MCF-7A, T47D, ZR-75-1, LNCaP and GH4C1 cells; assay: TGFβ1 at 50 ng/mL ± E2 with other ER^+ cell lines; assay type: cell-based
GH4C1 cells = assay: Cell growth assay, GH4C1 rat pituitary tumor cells; conditions: 50% CDE-horse serum
Description: as §1, §2, §3

human CBG = human CBG (Homo sapiens, UniProt P08185); conditions: 23° C.; cited from earlier work
human CBG, sequence (P08185 23-405): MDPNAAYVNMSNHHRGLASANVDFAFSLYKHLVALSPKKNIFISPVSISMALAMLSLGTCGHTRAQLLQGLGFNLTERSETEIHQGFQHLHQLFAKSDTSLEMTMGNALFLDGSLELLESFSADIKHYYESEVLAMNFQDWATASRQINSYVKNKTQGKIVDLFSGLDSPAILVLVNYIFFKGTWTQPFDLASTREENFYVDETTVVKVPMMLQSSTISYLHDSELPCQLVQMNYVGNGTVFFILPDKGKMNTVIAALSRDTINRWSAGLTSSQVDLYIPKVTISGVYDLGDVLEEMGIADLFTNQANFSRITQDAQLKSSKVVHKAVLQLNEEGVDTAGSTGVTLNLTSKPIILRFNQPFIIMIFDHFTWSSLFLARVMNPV

T47D cells = assay: Cell growth assay, T47D human breast cancer cells; conditions: for growth effect of steroid hormone, result in words: 50% (v/v) CDE horse serum, 14 days
Description: as §1, §2, §3

H301 cells = assay: Cell growth assay, H301 kidney tumor cells; conditions: 50% (v/v) CDE-horse serum
Description: as §1, §2, §3

[2] = target: T1, CA-PS-Pool I (predominantly CBG) (Equus caballus, UniProt F7DRS2); assay: Scatchard analysis of labeled steroid binding to CA-PS-pool I; parameters: species or system horse
T1 sequence (F7DRS2 23-406): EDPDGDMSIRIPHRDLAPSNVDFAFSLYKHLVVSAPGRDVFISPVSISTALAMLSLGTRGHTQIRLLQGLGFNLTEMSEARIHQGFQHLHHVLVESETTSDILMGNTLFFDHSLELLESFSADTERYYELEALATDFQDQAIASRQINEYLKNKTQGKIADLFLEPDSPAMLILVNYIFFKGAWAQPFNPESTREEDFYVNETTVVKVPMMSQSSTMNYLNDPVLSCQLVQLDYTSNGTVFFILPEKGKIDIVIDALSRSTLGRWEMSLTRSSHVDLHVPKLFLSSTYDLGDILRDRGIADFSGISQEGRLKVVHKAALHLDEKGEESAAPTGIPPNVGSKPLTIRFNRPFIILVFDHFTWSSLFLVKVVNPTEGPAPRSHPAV

[3] = system: CA-PS-Pool II from rat serum; assay: Scatchard analysis of labeled steroid binding to the SHBG-like pools from rat serum; conditions: 3H-labeled steroid
CA-PS-Pool II = assay: Scatchard analysis of labeled steroid binding to CA-PS-pool II; parameters: species or system horse; conditions: 3H-labeled steroid, 34° C.
[4] = system: cortisol receptors of MTW9/PL2 cells; assay: ^3H-cortisol binding to MTW9/PL2 cells; conditions: ≦20 nM ^3H-cortisol
MCF-7A cells = assay: Cell growth assay, MCF-7A human breast cancer cells; conditions: DDM-2MF with 10 μg/mL apotransferrin in place of deferoxamine
Description: as §1, §2, §3

ALVA-41 cells = assay: Cell growth assay, ALVA-41 human prostate cancer cells; conditions: results not shown
PC3 cells = assay: Cell growth assay, PC3 human prostate cancer cells; conditions: CAPM, 10 μM Fe (III)
Description: as §1, §2, §3

DU145 cells = assay: Cell growth assay, DU145 human prostate cancer cells; conditions: CAPM, 10 μM Fe (III)
Description: as §1, §2, §3

LNCaP cells = assay: Cell growth assay, LNCaP human prostatic carcinoma cells; assay type: cell-based; conditions: for reversal of the inhibition caused by CDE-horse serum: D-MEM/F-12 with CDE-horse serum, 10 nM steroid
Protocol: Specific modifications of the customary cell growth assays were required for assays done under iron-restricted conditions. […] Serum-free components were added to “low-Fe” D-MEM/F-12 at double the concentrations needed (2X) or to “standard” D-MEM/F-12 at (2X) as the experiments dictated. Each assay dish received 1.0 mL of this solution. Next, the cells to be used in the assays were washed three times in either “low-Fe” medium or “standard” medium depending upon the experimental protocol.

[5] = system: MCF-7A, MCF-7K, T47D and ZR-75-1 cells; assay: Growth factors as substitutes for E2 with human breast cancer cells in CDE-horse serum; assay type: cell-based; conditions: EGF, TGFα growth saturating; IGF-I 1.0 μg/mL; IGF-II up to 500 ng/mL; insulin 10 ng/mL to 10 μg/mL
[6] = target: T2, estrogen receptors of MTW9/PL2 cells (Rattus norvegicus, UniProt P06211); assay: ^3H-E2 binding to MTW9/PL2 cells; conditions: 5 nM ^3H-E2, 37° C., 100-fold molar excess of unlabeled steroid
T2 construct: endogenous in cells; host or cells: MTW9/PL2 rat mammary tumor cells (whole cells; some values from extracts of the parental MTW9/PL line)
T2 sequence (P06211 whole entry): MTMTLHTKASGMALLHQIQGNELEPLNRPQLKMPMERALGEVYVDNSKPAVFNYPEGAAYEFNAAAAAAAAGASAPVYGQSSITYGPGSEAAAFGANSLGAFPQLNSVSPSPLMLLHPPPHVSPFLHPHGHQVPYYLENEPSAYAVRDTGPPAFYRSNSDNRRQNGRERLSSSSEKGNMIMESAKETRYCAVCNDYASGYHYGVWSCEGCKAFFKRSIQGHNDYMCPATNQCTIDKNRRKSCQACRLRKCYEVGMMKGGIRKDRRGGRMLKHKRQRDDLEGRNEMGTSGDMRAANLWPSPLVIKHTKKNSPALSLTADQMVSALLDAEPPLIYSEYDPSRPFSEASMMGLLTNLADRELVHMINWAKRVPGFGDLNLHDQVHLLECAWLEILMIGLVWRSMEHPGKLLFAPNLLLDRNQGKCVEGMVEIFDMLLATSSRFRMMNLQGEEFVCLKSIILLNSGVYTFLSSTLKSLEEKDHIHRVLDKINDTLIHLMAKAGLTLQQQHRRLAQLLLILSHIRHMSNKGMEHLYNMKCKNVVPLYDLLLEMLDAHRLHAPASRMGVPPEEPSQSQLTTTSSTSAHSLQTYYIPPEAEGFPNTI

[7] = target: progesterone receptors in MTW9/PL2 cells (Rattus norvegicus, UniProt Q63449); assay: ^3H-progesterone binding to MTW9/PL2 cells
progesterone receptors in MTW9/PL2 cells (Rattus norvegicus, UniProt Q63449), sequence (Q63449 669-923 limits assumed): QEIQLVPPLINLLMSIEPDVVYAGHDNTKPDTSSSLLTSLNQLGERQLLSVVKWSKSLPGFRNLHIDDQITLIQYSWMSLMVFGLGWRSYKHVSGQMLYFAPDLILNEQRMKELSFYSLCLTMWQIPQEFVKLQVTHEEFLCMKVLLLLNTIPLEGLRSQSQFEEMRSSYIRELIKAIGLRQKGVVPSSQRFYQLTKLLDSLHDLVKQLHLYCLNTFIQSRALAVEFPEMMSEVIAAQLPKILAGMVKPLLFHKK

[8] = system: progesterone receptors in MTW9/PL2 cells; assay: ^3H-progesterone binding to MTW9/PL2 cells; parameters: species or system rat; conditions: 37° C.
[9] = system: androgen receptors of MTW9/PL2 cells
[10] = read-out: Kd of specific binding of ^3H-DHT, Scatchard analysis
[11] = read-out: Kd of specific binding of ^3H-DHT
human SHBG = human SHBG (Homo sapiens, UniProt P04278); conditions: 37° C.; cited from earlier work
human SHBG, sequence (P04278 30-402): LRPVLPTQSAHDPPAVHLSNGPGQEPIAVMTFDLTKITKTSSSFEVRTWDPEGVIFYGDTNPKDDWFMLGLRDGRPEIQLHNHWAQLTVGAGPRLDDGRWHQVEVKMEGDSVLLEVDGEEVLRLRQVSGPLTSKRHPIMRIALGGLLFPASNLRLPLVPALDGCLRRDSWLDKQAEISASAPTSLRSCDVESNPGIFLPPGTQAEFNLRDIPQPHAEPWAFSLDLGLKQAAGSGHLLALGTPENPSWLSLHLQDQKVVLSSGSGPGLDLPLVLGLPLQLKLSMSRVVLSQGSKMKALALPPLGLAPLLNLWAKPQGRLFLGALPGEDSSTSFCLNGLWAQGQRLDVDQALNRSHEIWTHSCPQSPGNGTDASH

[12] = read-out: CA-PS-Pool I Kd; 3H-labeled steroid, 34° C.

## TGFβ1: transforming growth factor β1
MTW9/PL2 cells; D-MEM/F-12 with […] (v/v) CDE-horse serum
  cell numbers per dish with TGFβ1 (350,000 without): 100,000 per dish
MTW9/PL2 cells; […] (v/v) CDE-horse serum
  decrease in growth rate: ≤ 25%
  inhibition of growth: 1.5 CPD
MTW9/PL2 cells; […] (v/v) CDE-horse serum ± E2
  estrogen reversal of the inhibition: no estrogen reversal of the TGFβ1 inhibition
MCF-7K cells; […] (v/v) CDE-horse serum ± E2
  estrogen reversal of the inhibition: no TGFβ1 related estrogenic effect
MCF-7K cells; […] (v/v) CDE-horse serum, 50 ng/mL
  cell numbers per dish with TGFβ1 (350,000 without): 200,000 per dish
[1]
  substitution for the estrogen reversible inhibitor: did not substitute for the estrogen reversible inhibitor(s) in CDE serum

## C[C@]12CCC(=O)C=C1CC[C@@H]1[C@@H]2[C@@H](O)C[C@@]2(C)[C@H]1CC[C@]2(O)C(=O)CO [cortisol, Hydrocortisone/Cortisol]
GH4C1 cells
  growth effect of steroid hormone, result in words: had no effect on GH4C1 growth
Human CBG
  Ka for human CBG: 5.2e+07 M⁻¹
T47D cells
  growth effect of steroid hormone, result in words: completely ineffective
H301 cells
  growth effect of steroid hormone, result in words: inactive
MTW9/PL2 cells
  concentration causing significant (p<0.05) growth: > 10000 nM
[2]; 3H-labeled steroid, 34° C.
  CA-PS-Pool I Ka: 1.41e+09 M⁻¹
[2]; 3H-labeled steroid, 34° C.; listed as Cortisol
  CA-PS-Pool I Ka: 1.41e+09 M⁻¹
[2]; 3H-labeled steroid, 34° C.; read-out: CA-PS-Pool I Kd
  Kd: 0.00071 µM
[3]
  CA-PS-Pool II Ka: 180000 M⁻¹
  Kd: 5.7 µM
CA-PS-Pool II
  CA-PS-Pool II Ka: 530000 M⁻¹
  Kd: 1.89 µM
[4]
  specific saturable receptors for cortisol: did not identify specific saturable receptors

## [Fe+3] [Fe (III)]
T47D cells; DDM-2MF with 10 μg/mL apotransferrin instead of deferoxamine, 10 days, ± E2
  concentration giving complete inhibition: 2 µM
T47D cells; read-out: EI50, DDM-2MF with 10 μg/mL apotransferrin instead of deferoxamine, 10 days
  IC50: 1 µM
MCF-7A cells; ± E2, 10 days
  concentration completely inhibitory: 10 µM
MCF-7A cells; read-out: EI50, 10 days
  IC50: 5 to 7 µM
ALVA-41 cells
  iron sensitivity of growth: not iron sensitive
PC3 cells
  reduction in cell number: 10%
DU145 cells
  reduction in cell number: 30%
LNCaP cells; CAPM with apotransferrin (500 nM) substituted for deferoxamine, 12-day assay, read-out: EI50 (the source's name)
  IC50: 5 µM
LNCaP cells; CAPM with apotransferrin (500 nM) substituted for deferoxamine, 12-day assay, second experiment in CAPM
  concentration arresting growth to seed density levels: 10 µM and 8 to 10 µM

## CC(=O)N(O)CCCCCNC(=O)CCC(=O)N(O)CCCCCNC(=O)CCC(=O)N(O)CCCCCN [deferoxamine, deferoxamine mesylate]
LNCaP cells; CAPM without deferoxamine plus […] Fe (III), 0.5 μM chelator
  growth induced by chelator: 3.5 CPD

## IGF-II: insulin-like growth factor II
[5]
  reversal of the CDE-serum inhibition (substitute for E2): did not reverse the inhibitory effects of 10 to 50% (v/v) CDE serum

## C[C@]12CC[C@H]3[C@@H](CCC4=CC(=O)CC[C@@]43C)[C@@H]1CC[C@@H]2O [T, Testosterone]
GH4C1 cells
  growth effect of steroid hormone, result in words: ineffective
T47D cells
  growth effect of steroid hormone, result in words: promoted growth but only at supraphysiological concentrations
H301 cells
  growth effect of steroid hormone, result in words: inactive
[6]
  reduction of ^3H-E2 total binding by unlabeled steroid: did not displace ^3H-E2 total binding significantly

## CC(=O)[C@H]1CC[C@H]2[C@@H]3CCC4=CC(=O)CC[C@]4(C)[C@H]3CC[C@]12C [progesterone, Progesterone]
GH4C1 cells
  growth effect of steroid hormone, result in words: had no effect on GH4C1 growth
[7]
  Kd: 0.00329 µM
[8]
  ^3H-progesterone concentration at one-half saturation: 0.5 to 1 nM
  labeled progesterone concentration saturating specific binding: ≥ 5 nM
[8]; read-out: Kd of ^3H-progesterone binding, Scatchard analysis, whole cells
  Kd: 0.00102 µM
T47D cells
  growth effect of steroid hormone, result in words: completely ineffective
H301 cells
  growth effect of steroid hormone, result in words: inactive
MTW9/PL2 cells
  concentration causing significant (p<0.05) growth: ≥ 100 nM
[2]; 3H-labeled steroid, 34° C.
  CA-PS-Pool I Ka: 5.9e+08 M⁻¹
[2]; [12]
  Kd: 0.0017 µM
[3]
  CA-PS-Pool II Ka: 140000 M⁻¹
  Kd: 6.9 µM
CA-PS-Pool II
  CA-PS-Pool II Ka: 117000 M⁻¹
  Kd: 7.89 µM

## IGF-I: insulin-like growth factor I
[5]
  reversal of the CDE-serum inhibition (substitute for E2): did not reverse the serum inhibition

## C[C@]12CCC(=O)C[C@@H]1CC[C@@H]1[C@@H]2CC[C@]2(C)[C@@H](O)CC[C@@H]12 [DHT, Dihydrotestosterone]
T47D cells
  growth effect of steroid hormone, result in words: promoted growth but only at supraphysiological concentrations
H301 cells
  growth effect of steroid hormone, result in words: inactive
MTW9/PL2 cells
  concentration causing significant (p<0.05) growth: ≥ 10 nM
[9]
  specific saturable binding sites for androgens: did not reveal saturable specific binding sites
[2]; 3H-labeled steroid, 34° C.
  CA-PS-Pool I Ka: 164000 M⁻¹
[2]; [12]
  Kd: 6.05 µM
[3]
  CA-PS-Pool II Ka: 4.1e+07 M⁻¹
  Kd: 0.024 µM
CA-PS-Pool II
  CA-PS-Pool II Ka: 6.99e+07 M⁻¹
  Kd: 0.0143 µM
CA-PS-Pool II; listed as 3H-DHT
  CA-PS-Pool II Ka: 5.88e+07 M⁻¹
LNCaP cells; D-MEM/F-12 with 50% (v/v) CDE horse serum
  concentration causing significant (p<0.05) growth: 1 pM
LNCaP cells
  reversal of the inhibition caused by CDE-horse serum: effectively reversed the inhibition
LNCaP cells; serum-free CAPM ± 10 nM DHT
  androgenic effect (difference between presence and absence of DHT): less than one
[10]
  Kd: 0.001 to 0.005 µM
[11]
  Kd: 0.015 to 0.04 µM
Human SHBG
  Ka of purified human SHBG: 9.9e+08 M⁻¹

## TGFα: transforming growth factor α, EGF analogue
[5]
  reversal of the CDE-serum inhibition (substitute for E2): did not reverse the effects of the serum-borne inhibitor

## CC/C(=C(/CC)c1ccc(O)cc1)c1ccc(O)cc1 [DES, Diethylstilbestrol]
LNCaP cells
  reversal of the inhibition caused by CDE-horse serum: entirely ineffective

## EGF: epidermal growth factor from mouse submaxillary gland (NSYPGCPSSYDGYCLNGGVCMHIESLDSYTCNCVIGYSGDRCQTRDLRWWELR; not fully specified; Epidermal growth factor; UniProt P01132 977-1029, looked up)
[5]
  reversal of the CDE-serum inhibition (substitute for E2): did not reverse the effects of the serum-borne inhibitor

## insulin: bovine insulin
[5]
  reversal of the CDE-serum inhibition (substitute for E2): did not reverse the inhibition caused by 50% (v/v) CDE serum

## CC/C(=C(\c1ccccc1)c1ccc(OCCN(C)C)cc1)c1ccccc1 [tamoxifen, Tamoxifen Citrate]
T47D cells; 1.0×10^−7 M tamoxifen, serum-free defined medium
  estrogen reversal of the tamoxifen inhibition: estrogens completely reverse the effect
T47D cells; concentrations above 1.0×10^−7 M, serum-free DDM-2MF
  cytotoxicity: Higher concentrations were cytotoxic
T47D cells; serum-free DDM-2MF without any source of estrogens
  concentration that completely inhibited (arrested) growth: 100 nM

## C[C@]12CC[C@@H]3c4ccc(O)cc4CC[C@H]3[C@@H]1CCC2=O [E1, Estrone]
GH4C1 cells
  concentration required for optimum growth: 10 nM
  lowest concentration that gave significant (p<0.05) growth: 1 pM
H301 cells
  concentration required to achieve significant (p<0.05) growth: 100 pM
MTW9/PL2 cells
  concentration for optimum growth: 1 nM

## C[C@]12CC[C@@H]3c4ccc(O)cc4CC[C@H]3[C@@H]1C[C@@H](O)[C@@H]2O [E3, Estriol]
GH4C1 cells
  growth effect of steroid hormone, result in words: substantially less effective
MTW9/PL2 cells
  concentration for optimum growth: 10 nM
